Measured values from patent US10399940B2, “Substituted pyrrolidines and methods of use” (AbbVie S.à.r.l., priority 2016, dated 2019).
Like-named read-outs stand apart in the source and are kept apart here.

Target: T1, F508delCFTR (Homo sapiens, UniProt P13569, DEL508-508)
T1 construct: expressed in transfected cells; host or cells: CFBE41o- (human lung derived epithelial cell line), doxycycline-inducible expression
Assay: Cell Surface Expression-Horse Radish Peroxidase (CSE-HRP) assay
Assay type: cell-based
Details: CFBE41o-F508delCFTR-HRP cells; for Maximum % activity (with co-corrector): with co-corrector (2 μM); for Maximum % activity (with co-corrector) / Maximum % activity (without co-corrector): normalized to on-plate positive control, highest concentration 20 μM
Experimental: Cell Surface Expression-Horse Radish Peroxidase (CSE-HRP) Assay
A cellular assay for measuring the F508delCFTR cell surface expression after correction with test compounds either without or with a co-corrector (2 μM of 3-[(2R,4R)-4-({[1-(2,2-difluoro-1,3-benzodioxol-5-yl)cyclopropyl]carbonyl}amino)-7-methoxy-3,4-dihydro-2H-chromen-2-yl]benzoic acid), was developed in human lung derived epithelial cell line (CFBE41o-) (Veit G et al, (2012) Mol Biol Cell. 23(21): 4188-4202). The development was achieved by expressing the F508delCFTR mutation along with a horseradish peroxidase (HRP) in the fourth exofacial loop, and then measuring the HRP activity using luminescence readout from these cells, CFBE41o-F508delCFTR-HRP, that were incubated overnight with the test corrector compounds, either without or with the co-corrector. For this primary assay, the CFBE41o-F508delCFTR-HRP cells were plated in 384-well plates (Greiner Bio-one; Cat 781080) at 4,000 cells/well along with 0.5 μg/mL doxycycline to induce the F508delCFTR-HRP expression and further incubated at 37° C., 5% CO2 for 72 hours. The test compounds were then added either without or with a co-corrector at the required concentrations and further incubated for 18-24 hours at 33° C. The highest concentration tested was 20 μM with an 8-point concentration response curve using a 3-fold dilution in both the test compound without or with the co-corrector. Three replicate plates were run to determine one EC50. All plates contained negative controls (dimethyl sulfoxide, DMSO) and positive control (2 μM of 3-[(2R,4R)-4-({[1-(2,2-difluoro-1,3-benzodioxol-5-yl)cyclopropyl]carbonyl}amino)-7-methoxy-3,4-dihydro-2H-chromen-2-yl]benzoic acid) as well as on-plate concentration response of the positive control. Post incubation, the plates were washed 5× times with Dulbecco's phosphate buffered saline (DPBS), followed by the addition of the HRP substrate, luminol (50 μL), and measuring the HRP activity using luminescence readout on EnVision® Multilabel Plate Reader (Perkin Elmer; product number 2104-0010). The raw counts from the experiment were analyzed using Accelrys® Assay Explorer v3.3.
Z′ greater than 0.5 was used as passing quality control criteria for the plates.
The Z′ is defined as: 1−[3*SDPositive Control+3*SDNegative Control/Absolute(MeanPositive Control−MeanNegative Control)] wherein “SD” is standard deviation.
The % activity measured at each of the 8 test concentrations of the test compound added either without or with a co-corrector (2 μM of 3-[(2R,4R)-4-({[1-(2,2-difluoro-1,3-benzodioxol-5-yl)cyclopropyl]carbonyl}amino)-7-methoxy-3,4-dihydro-2H-chromen-2-yl]benzoic acid) was normalized to the on-plate positive control using the following formulae: % activity(Test compound without co-corrector)=[(test compound without co-corrector response−DMSO response)/(positive control response−DMSO response)]*100 % activity(Test compound with co-corrector)=[(test compound with co-corrector response−DMSO response)/(positive control response−DMSO response)]*100
The maximum % activity achieved for the test compound either without or with a co-corrector at any tested concentration is presented in Table 1 along with the respective EC50's calculated using the following general sigmoidal curve with variable Hill slope equation (described as Model 42 in the Accelrys® Assay Explorer v3.3 software): y=(a−d)/(1+(x/c)^b)+d
General sigmoidal curve with concentration, response, top, bottom, EC50 and Hill slope. This model describes a sigmoidal curve with an adjustable baseline, a. The equation can be used to fit curves where response is either increasing or decreasing with respect to the independent variable, “x”. • “x” is a concentration of drug under test. • “y” is the response. • “a” is the maximum response, and “d” is the minimum response • “c” is the inflection point (EC50) for the curve. That is, “y” is halfway between the lower and upper asymptotes when x=c. “b” is the slope-factor or Hill coefficient. […]

[1] = test compound without co-corrector, 18-24 hours at 33° C., read-out: EC50 (without co-corrector)
[2] = with co-corrector (2 μM of 3-[(2R,4R)-4-({[1-(2,2-difluoro-1,3-benzodioxol-5-yl)cyclopropyl]carbonyl}amino)-7-methoxy-3,4-dihydro-2H-chromen-2-yl]benzoic acid), read-out: EC50 (with co-corrector)

T1 sequence (P13569 with tags, fused parts or gaps DEL508-508): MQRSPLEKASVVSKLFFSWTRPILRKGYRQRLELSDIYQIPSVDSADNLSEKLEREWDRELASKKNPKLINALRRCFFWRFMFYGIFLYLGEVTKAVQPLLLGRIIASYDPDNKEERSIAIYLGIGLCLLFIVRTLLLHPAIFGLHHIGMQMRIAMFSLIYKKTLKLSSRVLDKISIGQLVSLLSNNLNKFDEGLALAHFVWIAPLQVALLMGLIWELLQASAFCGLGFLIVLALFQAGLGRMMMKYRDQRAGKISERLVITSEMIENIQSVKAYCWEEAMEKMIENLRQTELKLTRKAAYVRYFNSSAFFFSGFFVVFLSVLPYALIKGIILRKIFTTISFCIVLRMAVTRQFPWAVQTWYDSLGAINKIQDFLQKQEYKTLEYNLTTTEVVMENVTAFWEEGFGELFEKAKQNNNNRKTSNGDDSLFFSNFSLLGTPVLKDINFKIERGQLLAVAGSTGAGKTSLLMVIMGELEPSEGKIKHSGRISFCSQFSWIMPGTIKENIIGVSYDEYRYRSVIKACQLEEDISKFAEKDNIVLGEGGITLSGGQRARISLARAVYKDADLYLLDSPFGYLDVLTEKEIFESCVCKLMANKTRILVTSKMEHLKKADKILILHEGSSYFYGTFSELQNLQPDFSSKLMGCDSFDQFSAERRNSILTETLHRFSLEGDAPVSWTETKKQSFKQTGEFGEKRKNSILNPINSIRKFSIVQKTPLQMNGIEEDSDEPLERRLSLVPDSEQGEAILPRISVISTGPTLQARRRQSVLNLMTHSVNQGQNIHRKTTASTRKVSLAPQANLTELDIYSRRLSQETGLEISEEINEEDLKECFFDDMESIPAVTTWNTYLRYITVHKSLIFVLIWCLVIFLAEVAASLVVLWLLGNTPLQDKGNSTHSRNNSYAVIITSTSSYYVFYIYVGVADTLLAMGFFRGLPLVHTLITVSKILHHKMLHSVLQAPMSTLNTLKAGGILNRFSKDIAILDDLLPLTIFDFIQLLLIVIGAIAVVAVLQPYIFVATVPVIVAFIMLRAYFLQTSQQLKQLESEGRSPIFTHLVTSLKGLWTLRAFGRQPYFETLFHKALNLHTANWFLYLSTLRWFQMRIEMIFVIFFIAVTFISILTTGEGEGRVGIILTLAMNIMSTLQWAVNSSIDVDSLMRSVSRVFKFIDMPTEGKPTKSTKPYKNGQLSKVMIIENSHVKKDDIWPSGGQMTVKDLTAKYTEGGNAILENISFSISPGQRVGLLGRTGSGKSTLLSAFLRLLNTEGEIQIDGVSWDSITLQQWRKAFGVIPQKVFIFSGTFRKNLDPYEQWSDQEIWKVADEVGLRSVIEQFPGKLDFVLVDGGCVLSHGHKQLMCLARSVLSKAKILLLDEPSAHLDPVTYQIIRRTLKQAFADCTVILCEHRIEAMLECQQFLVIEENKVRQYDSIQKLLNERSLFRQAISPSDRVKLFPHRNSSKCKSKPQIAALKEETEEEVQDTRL

SMILES	EC50 [1]	EC50 [2]	Maximum % activity (with co-corrector)	Maximum % activity (without co-corrector)
COc1ccc(C(F)(F)F)cc1CO[C@@H]1[C@@H](C(C)(C)C)[C@H](C(=O)O)N(C(=O)[C@H]2CCC[C@H](OC)C2)[C@@H]1c1ccccc1 [Example 27, (2R,3S,4R,5R)-3-tert-butyl-1-[(1S,3S)-3-methoxycyclohexane-1-carbonyl]-4-{[2-methoxy-5-(trifluoromethyl)phenyl]methoxy}-5-phenylpyrrolidine-2-carboxylic acid]	1 to 10 µM	< 1 µM	+++ (≥350)	++ (≥100 and <200)
CO[C@H]1CCC[C@H](C(=O)N2[C@H](c3ccccc3)[C@H](Oc3cc(C(F)(F)F)cc(C)n3)[C@@H](C(C)(C)C)[C@@H]2C(=O)O)C1 [Example 28, (2R,3S,4R,5R)-3-tert-butyl-1-[(1S,3S)-3-methoxycyclohexane-1-carbonyl]-4-{[6-methyl-4-(trifluoromethyl)pyridin-2-yl]oxy}-5-phenylpyrrolidine-2-carboxylic acid]	1 to 10 µM	1 to 10 µM	+++ (≥350)	++ (≥100 and <200)
COc1ccc(C(F)(F)F)cc1CO[C@H]1[C@H](C(C)(C)C)[C@@H](C(=O)O)N(C(=O)[C@H]2CCC[C@H](OC)C2)[C@H]1c1ccccc1 [Example 30, (2S,3R,4S,5S)-3-tert-butyl-1-[(1S,3S)-3-methoxycyclohexane-1-carbonyl]-4-{[2-methoxy-5-(trifluoromethyl)phenyl]methoxy}-5-phenylpyrrolidine-2-carboxylic acid]	1 to 10 µM	< 1 µM	+++ (≥350)	++ (≥100 and <200)
COc1cc(C(F)(F)F)ccc1CO[C@H]1[C@H](C(C)(C)C)[C@@H](C(=O)O)N(C(=O)[C@H]2CCC[C@H](OC)C2)[C@H]1c1ccccc1 [Example 32, (2S,3R,4S,5S)-3-tert-butyl-1-[(1S,3S)-3-methoxycyclohexane-1-carbonyl]-4-{[2-methoxy-4-(trifluoromethyl)phenyl]methoxy}-5-phenylpyrrolidine-2-carboxylic acid]	1 to 10 µM	1 to 10 µM	+++ (≥350)	+ (<100)
COc1cc(C(F)(F)F)ccc1CO[C@H]1[C@H](C(C)(C)C)[C@@H](C(=O)O)N(C(=O)[C@@H]2CCC[C@@H](OC)C2)[C@H]1c1ccccc1 [Example 33, (2S,3R,4S,5S)-3-tert-butyl-1-[(1R,3R)-3-methoxycyclohexane-1-carbonyl]-4-{[2-methoxy-4-(trifluoromethyl)phenyl]methoxy}-5-phenylpyrrolidine-2-carboxylic acid]	1 to 10 µM	1 to 10 µM	+++ (≥350)	++ (≥100 and <200)
COc1ccc(Br)cc1CO[C@H]1[C@H](C(C)(C)C)[C@@H](C(=O)O)N(C(=O)OC(C)C)[C@H]1c1ccccc1 [Example 36, (2S,3R,4S,5S)-4-[(5-bromo-2-methoxyphenyl)methoxy]-3-tert-butyl-5-phenyl-1-{[(propan-2-yl)oxy]carbonyl}pyrrolidine-2-carboxylic acid]	1 to 10 µM	1 to 10 µM	+++ (≥350)	++ (≥100 and <200)

More lines, now with the values ahead:

EC50 [1]	EC50 [2]	Maximum % activity (with co-corrector)	Maximum % activity (without co-corrector)	SMILES
> 10 µM	> 10 µM	+ (<150)	+ (<100)	COc1ccc(C(F)(F)F)cc1CO[C@H]1[C@H](C(C)(C)C)[C@@H](C(=O)NS(=O)(=O)C2(C)CC2)N(C(=O)C2CCCCC2)[C@H]1c1ccccc1 [Example 22, (2S,3R,4S,5S)-3-tert-butyl-1-(cyclohexanecarbonyl)-4-{[2-methoxy-5-(trifluoromethyl)phenyl]methoxy}-N-(1-methylcyclopropane-1-sulfonyl)-5-phenylpyrrolidine-2-carboxamide]
> 10 µM	1 to 10 µM	++ (≥150 and <350)	+ (<100)	COc1ccc(C(F)(F)F)cc1CO[C@H]1[C@H](C(C)(C)C)[C@@H](C(=O)NS(=O)(=O)C2CC2)N(C(=O)C2CCCCC2)[C@H]1c1ccccc1 [Example 23, (2S,3R,4S,5S)-3-tert-butyl-1-(cyclohexanecarbonyl)-N-(cyclopropanesulfonyl)-4-{[2-methoxy-5-(trifluoromethyl)phenyl]methoxy}-5-phenylpyrrolidine-2-carboxamide]
> 10 µM	1 to 10 µM	++ (≥150 and <350)	+ (<100)	CCS(=O)(=O)NC(=O)[C@@H]1[C@@H](C(C)(C)C)[C@H](OCc2cc(C(F)(F)F)ccc2OC)[C@H](c2ccccc2)N1C(=O)C1CCCCC1 [Example 24, (2S,3R,4S,5S)-3-tert-butyl-1-(cyclohexanecarbonyl)-N-(ethanesulfonyl)-4-{[2-methoxy-5-(trifluoromethyl)phenyl]methoxy}-5-phenylpyrrolidine-2-carboxamide]
> 10 µM	1 to 10 µM	++ (≥150 and <350)	+ (<100)	COc1ccc(C(F)(F)F)cc1CO[C@H]1[C@H](C(C)(C)C)[C@@H](C(=O)NS(=O)(=O)N(C)C)N(C(=O)C2CCCCC2)[C@H]1c1ccccc1 [Example 25, (2S,3R,4S,5S)-3-tert-butyl-1-(cyclohexanecarbonyl)-N-(dimethylsulfamoyl)-4-{[2-methoxy-5-(trifluoromethyl)phenyl]methoxy}-5-phenylpyrrolidine-2-carboxamide]
1 to 10 µM	1 to 10 µM	++ (≥150 and <350)	+ (<100)	COc1ccc(C(F)(F)F)cc1CO[C@H]1[C@H](C(C)(C)C)[C@@H](C(=O)NS(C)(=O)=O)N(C(=O)C2CCCCC2)[C@H]1c1ccccc1 [Example 26, (2S,3R,4S,5S)-3-tert-butyl-1-(cyclohexanecarbonyl)-N-(methanesulfonyl)-4-{[2-methoxy-5-(trifluoromethyl)phenyl]methoxy}-5-phenylpyrrolidine-2-carboxamide]
1 to 10 µM	< 1 µM	+++ (≥350)	+++ (≥200)	COc1ccc(C(F)(F)F)cc1CO[C@H]1[C@H](C(C)(C)C)[C@@H](C(=O)O)N(C(=O)[C@@H]2CCC[C@@H](OC)C2)[C@H]1c1ccccc1 [Example 31, (2S,3R,4S,5S)-3-tert-butyl-1-[(1R,3R)-3-methoxycyclohexane-1-carbonyl]-4-{[2-methoxy-5-(trifluoromethyl)phenyl]methoxy}-5-phenylpyrrolidine-2-carboxylic acid]
